Read-outs that look alike come from different tables or passages of the source.
Key:
Type in all cases: cell-based
Human Cav 2.2 channels = Human Cav 2.2 channels (Homo sapiens, UniProt Q00975); experiment: Fluorescent assay for CaV2.2 channels using potassium depolarization (VIPR/FLIPR); settings: FLIPR data
Procedure, shortened: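 Fluo-4 calcium fluorescence (480/535 nm) was recorded on VIPR or FLIPR after depolarization to 70 mM final potassium. Before this, cells were preincubated 30 min at 25 °C with compound in 4–30 mM potassium, so that state-dependent block could be assessed; the cells were HEK293 coexpressing Cav2.2, α2δ, β and Kir2.3.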

CAv1.2 [1] = target: T1, CAv1.2 (Homo sapiens, UniProt Q13936); experiment: FLIPR data, CAv1.2 channel blocking (Table 6); settings: for CAv1.2 IC50 Ratio closed/inact.: ratio closed/inactivated IC50
T-type calcium channel [2] = target: T-type calcium channel (Homo sapiens, UniProt O95180); experiment: T-type channel blocking, FLIPR data (Table 6)
Text: (§1) Another method, high-throughput spectrophotometric assay, utilizes loading of the cell lines with a fluorescent dye sensitive to intracellular calcium concentration and subsequent examination of the effects of compounds on the ability of depolarization by potassium chloride or other means to alter intracellular calcium levels.

T-type calcium channel [3] = target: T-type calcium channel (Homo sapiens, UniProt O43497); experiment: T-type channel blocking, FLIPR data (Table 6); settings: CAv3.1
Text: as §1

CAv1.2 [4] = target: T1, CAv1.2; experiment: L-type (CAv1.2) channel blocking, FLIPR data (Table 6)
[5] = closed state, read-out: CAv2.2 IC50 Closed
[6] = inactivated state, read-out: CAv2.2 IC50 Inact.
[7] = closed state, read-out: CAv1.2 IC50 Closed
[8] = inactivated state, read-out: CAv1.2 IC50 Inact.
[9] = CAv3.2, closed state, read-out: CAv3.2 IC50 Closed
[10] = CAv3.2, inactivated state, read-out: CAv3.2 IC50 Inact.
[11] = CAv3.2, ratio closed/inactivated IC50

Chain of T-type calcium channel (Homo sapiens, UniProt O95180) (O95180 whole entry): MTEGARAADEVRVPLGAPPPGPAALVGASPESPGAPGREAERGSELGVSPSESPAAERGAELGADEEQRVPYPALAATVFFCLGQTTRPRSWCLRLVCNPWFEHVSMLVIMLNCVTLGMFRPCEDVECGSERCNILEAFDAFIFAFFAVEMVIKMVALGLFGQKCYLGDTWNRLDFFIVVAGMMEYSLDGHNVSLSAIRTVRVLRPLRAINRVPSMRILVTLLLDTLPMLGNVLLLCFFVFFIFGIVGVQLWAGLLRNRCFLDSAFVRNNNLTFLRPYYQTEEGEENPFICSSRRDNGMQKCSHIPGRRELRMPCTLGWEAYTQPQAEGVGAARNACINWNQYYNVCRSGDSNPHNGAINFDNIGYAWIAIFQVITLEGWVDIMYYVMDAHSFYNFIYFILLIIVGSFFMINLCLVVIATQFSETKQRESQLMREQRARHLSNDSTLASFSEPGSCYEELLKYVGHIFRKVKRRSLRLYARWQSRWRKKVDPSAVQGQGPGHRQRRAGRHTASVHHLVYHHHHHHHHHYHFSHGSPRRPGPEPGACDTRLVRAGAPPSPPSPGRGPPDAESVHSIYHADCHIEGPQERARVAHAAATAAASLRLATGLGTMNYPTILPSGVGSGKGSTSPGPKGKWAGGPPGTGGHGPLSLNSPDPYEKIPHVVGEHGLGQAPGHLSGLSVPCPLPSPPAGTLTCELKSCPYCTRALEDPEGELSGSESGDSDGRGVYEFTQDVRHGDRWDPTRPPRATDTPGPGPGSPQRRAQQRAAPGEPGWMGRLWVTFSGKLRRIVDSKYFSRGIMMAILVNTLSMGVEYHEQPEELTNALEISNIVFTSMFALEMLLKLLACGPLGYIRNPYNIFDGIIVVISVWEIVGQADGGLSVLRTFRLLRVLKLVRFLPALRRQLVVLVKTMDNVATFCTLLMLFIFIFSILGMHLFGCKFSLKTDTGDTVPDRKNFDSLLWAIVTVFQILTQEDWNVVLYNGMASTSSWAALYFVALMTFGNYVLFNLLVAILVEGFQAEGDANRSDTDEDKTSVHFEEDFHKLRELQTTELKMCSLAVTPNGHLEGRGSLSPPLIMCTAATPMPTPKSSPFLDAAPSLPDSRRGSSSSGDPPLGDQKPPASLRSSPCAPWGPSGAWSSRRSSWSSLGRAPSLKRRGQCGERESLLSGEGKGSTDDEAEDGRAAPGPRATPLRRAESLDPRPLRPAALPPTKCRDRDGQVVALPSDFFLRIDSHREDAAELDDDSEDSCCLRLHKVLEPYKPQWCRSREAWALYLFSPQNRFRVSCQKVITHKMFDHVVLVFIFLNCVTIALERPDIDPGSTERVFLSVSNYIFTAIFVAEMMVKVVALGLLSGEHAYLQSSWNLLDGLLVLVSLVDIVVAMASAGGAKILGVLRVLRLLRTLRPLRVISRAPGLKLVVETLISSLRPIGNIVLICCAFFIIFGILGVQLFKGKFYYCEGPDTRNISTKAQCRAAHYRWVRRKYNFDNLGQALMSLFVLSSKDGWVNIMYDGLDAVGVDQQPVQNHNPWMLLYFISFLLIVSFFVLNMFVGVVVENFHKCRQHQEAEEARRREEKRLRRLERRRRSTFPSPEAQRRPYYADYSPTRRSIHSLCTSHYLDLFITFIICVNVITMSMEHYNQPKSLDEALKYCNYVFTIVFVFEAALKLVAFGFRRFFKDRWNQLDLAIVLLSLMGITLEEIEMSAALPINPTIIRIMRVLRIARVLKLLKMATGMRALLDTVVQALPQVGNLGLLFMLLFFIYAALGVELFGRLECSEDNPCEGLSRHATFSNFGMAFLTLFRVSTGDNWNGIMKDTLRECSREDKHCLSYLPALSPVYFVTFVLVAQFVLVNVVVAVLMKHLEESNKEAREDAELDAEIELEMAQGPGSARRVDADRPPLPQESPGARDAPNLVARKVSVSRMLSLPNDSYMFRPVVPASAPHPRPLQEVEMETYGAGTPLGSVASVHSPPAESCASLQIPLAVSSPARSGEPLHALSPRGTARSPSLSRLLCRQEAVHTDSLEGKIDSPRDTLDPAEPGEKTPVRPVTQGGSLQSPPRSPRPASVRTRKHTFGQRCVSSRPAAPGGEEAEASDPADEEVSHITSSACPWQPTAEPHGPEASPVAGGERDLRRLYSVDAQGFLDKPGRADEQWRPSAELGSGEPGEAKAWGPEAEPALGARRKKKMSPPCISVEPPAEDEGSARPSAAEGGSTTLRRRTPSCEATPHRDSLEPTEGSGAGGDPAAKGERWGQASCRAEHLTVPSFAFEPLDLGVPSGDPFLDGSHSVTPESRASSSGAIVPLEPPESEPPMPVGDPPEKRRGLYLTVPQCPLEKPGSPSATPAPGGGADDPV
Chain of T-type calcium channel (Homo sapiens, UniProt O43497) (O43497 whole entry): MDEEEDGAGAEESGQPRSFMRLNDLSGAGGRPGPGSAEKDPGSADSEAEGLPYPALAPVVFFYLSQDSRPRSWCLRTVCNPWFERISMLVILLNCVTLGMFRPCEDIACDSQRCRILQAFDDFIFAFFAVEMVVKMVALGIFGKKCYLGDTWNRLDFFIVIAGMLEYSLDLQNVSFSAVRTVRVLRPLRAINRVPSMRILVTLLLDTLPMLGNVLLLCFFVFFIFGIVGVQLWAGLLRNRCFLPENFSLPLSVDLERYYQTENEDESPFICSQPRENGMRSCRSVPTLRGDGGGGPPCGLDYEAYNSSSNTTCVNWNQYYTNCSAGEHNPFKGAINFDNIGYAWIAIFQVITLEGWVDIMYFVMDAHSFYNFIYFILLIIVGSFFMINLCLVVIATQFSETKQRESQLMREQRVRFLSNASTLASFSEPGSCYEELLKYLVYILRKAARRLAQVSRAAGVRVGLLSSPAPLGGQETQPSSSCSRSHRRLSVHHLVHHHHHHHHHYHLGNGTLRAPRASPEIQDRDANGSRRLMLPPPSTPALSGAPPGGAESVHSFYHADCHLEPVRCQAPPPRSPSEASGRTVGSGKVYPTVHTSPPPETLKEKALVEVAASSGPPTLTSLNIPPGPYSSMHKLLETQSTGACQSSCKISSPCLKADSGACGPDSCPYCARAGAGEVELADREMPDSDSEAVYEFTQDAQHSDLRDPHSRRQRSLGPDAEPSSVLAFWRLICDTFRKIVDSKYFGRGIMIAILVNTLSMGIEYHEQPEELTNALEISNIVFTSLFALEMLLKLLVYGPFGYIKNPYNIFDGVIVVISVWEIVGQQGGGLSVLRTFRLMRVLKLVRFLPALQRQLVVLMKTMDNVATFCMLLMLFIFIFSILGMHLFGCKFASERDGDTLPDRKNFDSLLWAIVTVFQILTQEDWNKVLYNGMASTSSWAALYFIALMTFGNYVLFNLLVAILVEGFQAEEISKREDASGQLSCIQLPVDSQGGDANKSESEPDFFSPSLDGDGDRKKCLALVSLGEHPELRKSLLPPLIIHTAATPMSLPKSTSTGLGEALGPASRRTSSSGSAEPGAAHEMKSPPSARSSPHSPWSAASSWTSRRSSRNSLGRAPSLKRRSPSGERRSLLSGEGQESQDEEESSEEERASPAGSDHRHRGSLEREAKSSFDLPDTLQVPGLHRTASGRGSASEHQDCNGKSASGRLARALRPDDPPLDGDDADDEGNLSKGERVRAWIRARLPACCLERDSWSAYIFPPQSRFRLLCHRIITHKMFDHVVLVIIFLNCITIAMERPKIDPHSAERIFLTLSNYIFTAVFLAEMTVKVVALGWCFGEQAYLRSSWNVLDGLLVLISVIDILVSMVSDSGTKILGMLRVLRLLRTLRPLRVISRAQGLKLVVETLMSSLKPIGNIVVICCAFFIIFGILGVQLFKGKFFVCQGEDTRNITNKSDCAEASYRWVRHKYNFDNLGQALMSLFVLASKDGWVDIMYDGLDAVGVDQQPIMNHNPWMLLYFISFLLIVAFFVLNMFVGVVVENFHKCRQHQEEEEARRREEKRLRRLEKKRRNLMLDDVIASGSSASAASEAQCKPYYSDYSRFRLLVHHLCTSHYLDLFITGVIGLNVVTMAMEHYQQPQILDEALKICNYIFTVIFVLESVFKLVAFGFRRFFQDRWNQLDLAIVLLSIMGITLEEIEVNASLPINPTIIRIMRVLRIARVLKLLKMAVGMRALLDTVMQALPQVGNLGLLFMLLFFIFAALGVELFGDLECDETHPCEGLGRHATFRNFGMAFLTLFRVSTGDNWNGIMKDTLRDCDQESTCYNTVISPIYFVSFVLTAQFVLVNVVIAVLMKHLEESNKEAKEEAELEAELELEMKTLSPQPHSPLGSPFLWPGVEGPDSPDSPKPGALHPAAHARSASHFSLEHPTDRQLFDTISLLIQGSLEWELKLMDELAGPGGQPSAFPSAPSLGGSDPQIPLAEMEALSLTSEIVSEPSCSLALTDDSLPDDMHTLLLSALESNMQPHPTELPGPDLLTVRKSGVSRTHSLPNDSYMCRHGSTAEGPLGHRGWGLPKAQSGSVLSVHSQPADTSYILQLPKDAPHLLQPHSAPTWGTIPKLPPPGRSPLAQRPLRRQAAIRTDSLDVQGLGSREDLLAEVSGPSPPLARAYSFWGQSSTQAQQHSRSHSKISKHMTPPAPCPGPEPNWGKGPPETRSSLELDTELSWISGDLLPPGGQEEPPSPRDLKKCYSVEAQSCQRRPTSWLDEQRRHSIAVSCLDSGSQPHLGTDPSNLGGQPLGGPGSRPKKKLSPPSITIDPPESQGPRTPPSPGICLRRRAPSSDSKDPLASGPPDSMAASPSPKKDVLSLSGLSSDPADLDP

SMILES | IC50 (Human Cav 2.2 channels; [5]) | IC50 (Human Cav 2.2 channels; [6]) | CAv2.2 IC50 Ratio closed/inact. (Human Cav 2.2 channels; ratio closed/inactivated IC50) | IC50 (CAv1.2 [1]; [7]) | IC50 (CAv1.2 [1]; [8]) | CAv1.2 IC50 Ratio closed/inact. (CAv1.2 [1]) | IC50 (T-type calcium channel [2]; [9]) | IC50 (T-type calcium channel [2]; [10]) | CAv3.2 IC50 Ratio closed/inact. (T-type calcium channel [2]; [11]) | IC50 (T-type calcium channel [3]) | CAv2.2 IC50 Ratio closed/inact. (Human Cav 2.2 channels; ratio closed/inact.) | CAv3.2 IC50 Ratio closed/inact. (T-type calcium channel [2]; CAv3.2, ratio closed/inact.) | IC50 (CAv1.2 [4]; [7]) | IC50 (CAv1.2 [4]; [8]) | CAv1.2 IC50 Ratio closed/inact. (CAv1.2 [4])
Cn1nc(C(F)(F)F)cc1C(=O)N[C@H]1C[C@H](CC(C)(C)S(=O)(=O)c2cccc(C(F)(F)F)c2)C1 [Compound 725] | 1.63 µM | 0.14 µM | 11.6 | 6.7 µM | 2.78 µM | 2.4 | 2.31 µM | 0.68 µM | 3.4 | 3.6 µM |  |  |  |  | 
CC(C)S(=O)(=O)c1cc(C(F)(F)F)cnc1C(=O)N[C@H]1C[C@@H](CC(C)(C)S(=O)(=O)c2cccc(C(F)(F)F)c2)C1 [Compound 729] | 6.9 µM | 0.15 µM | 46 | ≥ 10 µM | 9.3 µM | 1.1 | 8.13 µM | 6.78 µM | 1.2 | 8.24 µM |  |  |  |  | 
CC(C)(C[C@H]1C[C@@H](NC(=O)c2ccc(Cl)cc2S(C)(=O)=O)C1)S(=O)(=O)c1cccc(C(F)(F)F)c1 [Compound 731] | 5.38 µM | 0.23 µM | 23.4 | ≥ 10 µM | ≥ 10 µM |  | 6.36 µM | 6.67 µM | 1 | ≥ 10 µM |  |  |  |  | 
CC(C)(C[C@H]1C[C@@H](NC(=O)c2ccc(C(F)(F)F)cc2)C1)S(=O)(=O)c1cccc(C(F)(F)F)c1 [Compound 732] | 0.92 µM | 0.06 µM | 15.3 | 2.89 µM | 0.62 µM | 4.7 | 0.57 µM | 0.76 µM | 0.8 | 3.81 µM |  |  |  |  | 
CC(C)(C[C@H]1C[C@@H](NC(=O)c2ccc(Cl)cn2)C1)S(=O)(=O)c1cccc(C(F)(F)F)c1 [Compound 733] | 0.5 µM | 0.05 µM | 10 | 7.27 µM | 3.99 µM | 1.8 | 4.61 µM | 1.41 µM | 3.3 | 6.16 µM |  |  |  |  | 
CC(C)(C[C@H]1C[C@@H](NC(=O)c2cnc(C(F)(F)F)nc2)C1)S(=O)(=O)c1cccc(C(F)(F)F)c1 [Compound 734] | 3.39 µM | 0.13 µM | 26.1 | ≥ 10 µM | 5.67 µM | 1.8 | 8.7 µM | 2.27 µM | 3.8 | ≥ 10 µM |  |  |  |  | 
CC(C)(C[C@H]1C[C@@H](NC(=O)c2ccc(C(F)(F)F)cn2)C1)S(=O)(=O)c1cccc(C(F)(F)F)c1 [Compound 735] | 0.69 µM | 0.07 µM | 9.9 | 6.37 µM | 3.71 µM | 1.7 | 4.55 µM | 1.46 µM | 3.1 | 3.51 µM |  |  |  |  | 
CC(C)(C[C@H]1C[C@@H](NC(=O)c2ccc(C(F)(F)F)nc2)C1)S(=O)(=O)c1cccc(C(F)(F)F)c1 [Compound 736] | 2.2 µM | 0.13 µM | 16.9 | ≥ 10 µM | 3.32 µM | 3 | 6.64 µM | 2.73 µM | 2.4 | ≥ 10 µM |  |  |  |  | 
CC(C)(C[C@H]1C[C@@H](NC(=O)c2ccc(OCC(F)(F)F)nc2)C1)S(=O)(=O)c1cccc(C(F)(F)F)c1 [Compound 737] | 0.86 µM | 0.04 µM | 21.5 | 4.23 µM | 1.28 µM | 3.3 | 2.06 µM | 0.52 µM | 4 | 2.18 µM |  |  |  |  | 
Cn1nc(C(F)(F)F)cc1C(=O)N[C@H]1C[C@@H](CC(C)(C)S(=O)(=O)c2cccc(C(F)(F)F)c2)C1 [Compound 738] | 1.27 µM | 0.12 µM | 10.6 | 5.36 µM | 2.34 µM | 2.3 | 2.25 µM | 0.52 µM | 4.3 | 5.75 µM |  |  |  |  | 
CC(C)(C[C@H]1C[C@@H](NC(=O)[C@@H]2CCCC[C@@H]2N)C1)S(=O)(=O)c1cccc(C(F)(F)F)c1 [Compound 740] | 3.91 µM | 0.85 µM |  |  |  |  | ≥ 10 µM | 10 µM |  | ≥ 10 µM | 4.6 | 1 | ≥ 10 µM | ≥ 10 µM | 
CC(C)(C[C@H]1C[C@@H](NC(=O)[C@@H]2CCCC[C@H]2N)C1)S(=O)(=O)c1cccc(C(F)(F)F)c1 [Compound 741] | 3.86 µM | 1.31 µM |  |  |  |  | ≥ 10 µM | 10 µM |  | ≥ 10 µM | 2.9 | 1 | ≥ 10 µM | ≥ 10 µM | 
CC(C)(C[C@H]1C[C@H](NC(=O)[C@H]2CCCC[C@@H]2N)C1)S(=O)(=O)c1cccc(C(F)(F)F)c1 [Compound 743] | 3.37 µM | 1.46 µM |  |  |  |  |  | 10 µM |  |  | 2.3 |  | ≥ 10 µM | ≥ 10 µM | 
CC(C)(C[C@H]1C[C@@H](NC(=O)[C@H]2CCCC[C@H]2N)C1)S(=O)(=O)c1cccc(C(F)(F)F)c1 [Compound 744] | 4.11 µM | 0.94 µM |  |  |  |  | ≥ 10 µM |  |  | ≥ 10 µM | 4.4 |  | ≥ 10 µM | ≥ 10 µM | 
CC(C)(C[C@H]1C[C@@H](NC(=O)[C@H]2CCCC[C@@H]2N)C1)S(=O)(=O)c1cccc(C(F)(F)F)c1 [Compound 745] | 4.22 µM | 1.21 µM |  |  |  |  | ≥ 10 µM | 10 µM |  | ≥ 10 µM | 3.5 | 1 | 8.68 µM | ≥ 10 µM | 0.9
O=C(c1ccc(OCC(F)(F)F)nc1)N1CC(CS(=O)(=O)c2cc(F)cc(C(F)(F)F)c2)C1 [Compound 747] | 10 µM | 5.05 µM |  |  |  |  | 9.95 µM | 5.57 µM |  | ≥ 10 µM | 2 | 1.8 | ≥ 10 µM | 8.8 µM | 1.1
Cn1nc(C(F)(F)F)cc1C(=O)N1CC(CS(=O)(=O)c2cc(F)cc(C(F)(F)F)c2)C1 [Compound 748] | 10 µM | 5.24 µM |  |  |  |  | ≥ 10 µM | 8.42 µM |  | ≥ 10 µM | 1.9 | 1.2 | ≥ 10 µM | ≥ 10 µM | 
CC(C)([C@H]1C[C@H](CNc2ccc(F)c(Cl)c2)C1)S(=O)(=O)c1cccc(C(F)(F)F)c1 [Compound 750] | 2.33 µM | 0.17 µM |  |  |  |  | ≥ 10 µM | 0.74 µM |  | 3.37 µM | 13.7 | 13.5 | 3.42 µM | 0.99 µM | 3.5
CC(C)S(=O)(=O)c1cc(C(F)(F)F)cnc1C(=O)NC[C@H]1C[C@H](S(=O)(=O)c2cccc(Cl)c2)C1 [Compound 770] | 10 µM | 2.29 µM |  |  |  |  | ≥ 10 µM | 10 µM |  |  | 4.4 | 1 | ≥ 10 µM | ≥ 10 µM | 
O=C(NC[C@H]1C[C@H](S(=O)(=O)c2cccc(Cl)c2)C1)c1ccc(Cl)cn1 [Compound 772] |  | 5.67 µM |  |  |  |  | ≥ 10 µM | 10 µM |  |  | 1.8 | 1 | ≥ 10 µM |  | 
O=C(NC[C@H]1C[C@H](S(=O)(=O)c2cccc(Cl)c2)C1)c1ccc(C(F)(F)F)cn1 [Compound 774] | 9.98 µM | 4.32 µM |  |  |  |  | 6.63 µM | 10 µM |  |  | 2.3 | 0.7 | ≥ 10 µM | 6.45 µM | 1.6
N[C@H]1CCCC[C@@H]1C(=O)NC[C@H]1C[C@H](S(=O)(=O)c2cccc(Cl)c2)C1 [Compound 779] | 10 µM | ≥ 10 µM |  |  |  |  |  | 10 µM |  |  | 1 |  | ≥ 10 µM | ≥ 10 µM | 
N[C@@H]1CCCC[C@@H]1C(=O)NC[C@H]1C[C@H](S(=O)(=O)c2cccc(Cl)c2)C1 [Compound 780] | 10 µM | ≥ 10 µM |  |  |  |  | ≥ 10 µM |  |  |  | 1 |  | ≥ 10 µM | ≥ 10 µM | 
